The target of this test is RET G810R (Homo sapiens (Human), UniProt P07949, G810R). Put plainly: HTRF KinEASE-TK kinase activity test, RET G810R. The settings on record: for inhibitory activity against RET G810R relative to that of selpercatinib (LOXO-292): fold versus selpercatinib (LOXO-292). (In TR-FRET formats the signal depends on donor and acceptor labels being close together.)
Setting [1] is: read-out: RET G810R IC50, HTRF kinase assay.

Each structure is given as a SMILES string. Read-outs that look alike come from different tables or passages of the source.

The term IC50 denotes the concentration that inhibits the measured activity by half.

Chain of RET G810R (P07949 29-1114 G810R): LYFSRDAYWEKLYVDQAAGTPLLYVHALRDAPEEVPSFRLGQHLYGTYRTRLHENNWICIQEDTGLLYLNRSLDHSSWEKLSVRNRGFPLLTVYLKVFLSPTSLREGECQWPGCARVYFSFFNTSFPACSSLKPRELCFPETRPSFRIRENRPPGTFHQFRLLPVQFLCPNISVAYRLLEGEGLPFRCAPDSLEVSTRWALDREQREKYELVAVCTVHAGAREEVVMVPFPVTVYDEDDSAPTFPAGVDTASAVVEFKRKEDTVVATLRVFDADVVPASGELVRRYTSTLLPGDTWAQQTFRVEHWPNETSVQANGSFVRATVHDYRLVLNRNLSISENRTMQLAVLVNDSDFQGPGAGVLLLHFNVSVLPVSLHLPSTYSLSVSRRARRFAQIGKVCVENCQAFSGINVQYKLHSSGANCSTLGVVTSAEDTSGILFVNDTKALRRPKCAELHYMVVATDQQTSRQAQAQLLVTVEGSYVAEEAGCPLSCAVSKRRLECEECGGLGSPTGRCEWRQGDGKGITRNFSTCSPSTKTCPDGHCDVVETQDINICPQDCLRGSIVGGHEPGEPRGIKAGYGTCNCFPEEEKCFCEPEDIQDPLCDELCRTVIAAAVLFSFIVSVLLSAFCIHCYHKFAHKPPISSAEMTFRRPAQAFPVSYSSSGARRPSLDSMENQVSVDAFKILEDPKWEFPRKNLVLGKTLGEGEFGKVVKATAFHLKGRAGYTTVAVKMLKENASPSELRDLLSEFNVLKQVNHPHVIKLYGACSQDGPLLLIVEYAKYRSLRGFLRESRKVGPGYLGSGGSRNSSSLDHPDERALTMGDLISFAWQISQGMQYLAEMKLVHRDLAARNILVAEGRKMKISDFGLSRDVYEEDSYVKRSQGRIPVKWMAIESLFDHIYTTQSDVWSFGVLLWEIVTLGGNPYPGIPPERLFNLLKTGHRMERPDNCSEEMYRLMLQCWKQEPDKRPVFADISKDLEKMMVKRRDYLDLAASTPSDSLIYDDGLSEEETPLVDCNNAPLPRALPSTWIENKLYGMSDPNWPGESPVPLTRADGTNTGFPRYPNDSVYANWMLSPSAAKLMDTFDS

Turning to `CCOc1cc(-c2ccc(N3CCCC4(CCN(Cc5ccc(OC)nc5)CC4)C3)nc2)c2c3cn[nH]c3nn2c1` [Compound 219, 6-ethoxy-4-(6-(9-((6-methoxypyridin-3-yl)methylene)-2,9-diazaspiro[5.5]undecan-2-yl)pyridin-3-yl)-1H-pyrazolo[3′,4′:3,4]pyrazolo[1,5-α]pyridine], the IC50 under setting [1] is 66.4 nM.

For the molecule `CCOc1cc(-c2ccc(N3CCC4(CN(C(=O)c5c(F)cccc5Cl)C4)C3)nc2)c2c3cn[nH]c3nn2c1` [Compound 220, N-(6-(5-(6-ethoxy-1H-pyrazolo[3′,4′:3,4]pyrazolo[1,5-α]pyridin-4-yl)pyridin-2-yl)-2,6-diazaspiro [3.4]octan-2-yl)-2-chloro-6-fluorobenzamide], the concentration for half-maximal inhibition (IC50) under setting [1] is 26.2 nM.

Consider `C#CCOc1cc(-c2ccc(N3CC4CC(C3)N4Cc3ccc(OC)nc3)nc2)c2c3cn[nH]c3nn2c1` [Compound 227, 4-(6-(6-((6-methoxypyridin-3-yl)methylene)-3,6-diazabicyclo[3.1.1]heptan-3-yl)pyridin-3-yl)-6-(prop-2-yn-1-yloxy)-1H-pyrazolo[3′,4′:3,4]pyrazolo[1,5-α]pyridine], for which the IC50 under setting [1] amounted to 4.01 nM.

On to `COC(=O)COc1cc(-c2ccc(N3CC4CC(C3)N4Cc3ccc(OC)nc3)nc2)c2c3cn[nH]c3nn2c1` [Compound 228, Methyl 2-((4-(6-(6-((6-methoxypyridin-3-yl)methylene)-3,6-diazabicyclo[3.1.1]heptan-3-yl)pyridin-3-yl)-1H-pyrazolo[3′,4′:3,4]pyrazolo[1,5-α]pyridin-6-yl)oxy)acetate], for which the 50% inhibitory concentration (IC50) under setting [1] was determined as 5.7 nM.

As to `CCOc1cc(-c2ccc(N3CCC(CO)(NCc4ccc(OC)nc4)CC3)nc2)c2c3cn[nH]c3nn2c1` [Compound 229, (1-(5-(6-ethoxy-1H-pyrazolo[3′,4′:3,4]pyrazolo[1,5-α]pyridin-4-yl)pyridin-2-yl)-4-(((6-methoxypyridin-3-yl)methyl)amino)piperidin-4-yl)methanol], the IC50 under setting [1] worked out at 38.1 nM.

Turning to `CCOc1cc(-c2ccc(N3CC[C@H](NC(=O)c4c(F)cccc4F)[C@H](O)C3)nc2)c2c3cn[nH]c3nn2c1` [Compound 233], the “inhibitory activity against RET G810R relative to that of selpercatinib (LOXO-292)” value is listed as at least 10 times. For the same molecule, the half-inhibitory concentration (IC50) under setting [1] was 0.96 nM.

`CCOc1cc(-c2ccc(N3CCC(CN(C)C)(NC(=O)c4c(F)cccc4F)CC3)nc2)c2c3cn[nH]c3nn2c1` [Compound 234, N-(4-((dimethylamino)methyl)-1-(5-(6-ethoxy-1H-pyrazolo[3′,4′:3,4]pyrazolo[1,5-α]pyridin-4-yl)pyridin-2-yl)piperidin-4-yl)-2,6-difluorobenzamide]: the “inhibitory activity against RET G810R relative to that of selpercatinib (LOXO-292)” value was at least 10 times. The half-maximal inhibitory concentration (IC50) under setting [1] amounted to 1.6 nM.

Turning to `COc1cc(-c2ccc(N3CC4CC(C3)N4Cc3ccc(OC)nc3)nc2)c2c3cn[nH]c3nn2c1` [Compound 235], the “inhibitory activity against RET G810R relative to that of selpercatinib (LOXO-292)” value is at least 10 times. The 50% inhibitory concentration (IC50) under setting [1] came out at 2.2 nM.

Consider `COc1ccc(CN2C3CC2CN(c2ccc(-c4cc(P(C)(C)=O)cn5nc6[nH]ncc6c45)cn2)C3)cn1` [Compound 237, (4-(6-(6-((6-methoxypyridin-3-yl)methyl)-3,6-diazabicyclo[3.1.1]heptan-3-yl)pyridin-3-yl)-1H-pyrazolo[3′,4′:3,4]pyrazolo[1,5-α]pyridin-6-yl)dimethylphosphine oxide], for which the 50% inhibitory concentration (IC50) under setting [1] was found to be 112 nM.

Turning to `COc1ccc(CN2C3CC2CN(c2ccc(-c4cc(C(=O)O)cn5nc6[nH]ncc6c45)cn2)C3)cn1` [Compound 239, 4-(6-(6-((6-methoxypyridin-3-yl)methyl)-3,6-diazabicyclo[3.1.1]heptan-3-yl)pyridin-3-yl)-1H-py razolo[3′,4′:3,4]pyrazolo[1,5-α]pyridine-6-carboxylic acid], the 50% inhibitory concentration (IC50) under setting [1] was found to be 33.7 nM.

For the molecule `COc1ccc(CN2C3CC2CN(c2ccc(-c4cc(OCC(=O)O)cn5nc6[nH]ncc6c45)cn2)C3)cn1` [Compound 240, 2-((4-(6-(6-((6-methoxypyridin-3-yl)methyl)-3,6-diazabicyclo[3.1.1]heptan-3-yl)pyridin-3-yl)-1 H-pyrazolo[3′,4′:3,4]pyrazolo[1,5-α]pyridin-6-yl)oxy)acetic acid], half-maximal inhibition (IC50) was put at 4 nM.

For `C=CC(=O)Oc1cc(-c2ccc(N3CC4CC(C3)N4Cc3ccc(OC)nc3)nc2)c2c3cn[nH]c3nn2c1` [Compound 242, 4-(6-(6-((6-methoxypyridin-3-yl)methyl)-3,6-diazabicyclo[3.1.1]heptan-3-yl)pyridin-3-yl)-1H-py razolo[3′,4′:3,4]pyrazolo[1,5-α]pyridin-6-yl acrylate], the half-inhibitory concentration (IC50) under setting [1] was 4.7 nM.

Consider `COc1ccc(CN2C3CC2CN(c2ccc(-c4cc(C#N)cn5nc6[nH]ncc6c45)cn2)C3)cn1` [Compound 243], for which, under setting [1], the half-inhibitory concentration (IC50) turned out to be 89 nM.

Regarding `CCOc1cc(-c2ccc(N3CCN(Cc4ccc(OC)nc4)C(CN(C)C)C3)nc2)c2c3cn[nH]c3nn2c1` (stereo not drawn) [Compound 245, 1-(4-(5-(6-ethoxy-1H-pyrazolo[3′,4′:3,4]pyrazolo[1,5-α]pyridin-4-yl)pyridin-2-yl)-1-((6-methoxypyridin-3-yl)methylene)piperazin-2-yl)-N,N-dimethylmethanamine], under setting [1], the IC50 came out at 20.8 nM.

For `CCOc1cc(-c2ccc(N3CC4CC(C3)N4Cc3ccc(OC)nc3)nc2)c2c3c(C#N)n[nH]c3nn2c1` [Compound 248, 3-cyano-6-ethoxy-4-(6-(6-((6-methoxypyridin-3-yl)methyl)-3,6-diazabicyclo[3.1.1]heptan-3-yl)pyridin-3-yl)-1H-pyrazolo[3′,4′:3,4]pyrazolo[1,5-α]pyridine], the IC50 under setting [1] amounted to 15.5 nM.

On to `CCOc1cc(-c2ccc(N3CCN(Cc4ccc(OC)nc4)C(CO)C3)nc2)c2c3cn[nH]c3nn2c1` (stereo not drawn) [Compound 249, (4-(5-(6-ethoxy-1H-pyrazolo[3′,4′:3,4]pyrazolo[1,5-α]pyridin-4-yl)pyridin-2-yl)-1-((6-methoxypyridin-3-yl)methylene)piperazin-2-yl)methanol], for which, under setting [1], the half-inhibitory concentration (IC50) stood at 13.5 nM.

For `C=CC(=O)N1C2CC1CN(c1ccc(-c3cc(OCC)cn4nc5[nH]ncc5c34)cn1)C2` [Compound 250, 1-(3-(5-(6-ethoxy-1H-pyrazolo[3′,4′:3,4]pyrazolo[1,5-α]pyridin-4-yl)pyridin-2-yl)-3,6-diazabicyclo[3.1.1]heptan-6-yl)prop-2-en-1-one], the 50% inhibitory concentration (IC50) under setting [1] was found to be 40.8 nM.

With `CCOc1cc([C@H]2CC[C@](OC)(C(=O)N[C@@H](C)c3ccc(-n4cc(F)cn4)nc3)CC2)c2c3cn[nH]c3nn2c1` [Compound 258, (1S,4R)-4-(6-ethoxy-1H-pyrazolo[3′,4′:3,4]pyrazolo[1,5-α]pyridin-4-yl)-N—((S)-1-(6-(4-fluoro-1H-pyrazol-1-yl)pyridin-3-yl)ethyl)-1-methoxycyclohexane-1-carboxamide], under setting [1], the IC50 turned out to be 9.9 nM.

For `O=C(N[C@H]1CCN(c2ccc(-c3cc(OCCF)cn4nc5[nH]ncc5c34)cn2)C[C@H]1O)c1c(F)cccc1F` [Compound 267, N-((3R,4S)-1-(5-(6-(2-fluoroethoxy)-1H-pyrazolo[3′,4′:3,4]pyrazolo[1,5-α]pyridin-4-yl)pyridin-2-yl)-3-hydroxypiperidin-4-yl)-2,6-difluorobenzamide], the “inhibitory activity against RET G810R relative to that of selpercatinib (LOXO-292)” value is on record as at least 10 times. Besides, under setting [1], the concentration for half-maximal inhibition (IC50) turned out to be 3 nM.
